Consider 4 compounds from patent US20220395481A1, “BACTERIOSTATIC COMPOSITION, PREPARATION METHOD THEREFOR, AND USE THEREOF” (SHENZHEN EULIKAN BIOTECHNOLOGY CO., LTD, priority 2020, published 2022).

Where two headings read alike, the source gives them in different places.

Experiment [1] concerns Candida albicans ATCC 10231. In words: Inhibition rate after 20 minutes of action, Appendix C of GB 15979-2002. Format: cell-based.
Description: “Inhibition rate” is the inhibition rate of bacteriostatic agents against Escherichia coli, Staphylococcus aureus, Candida albicans, or other microorganisms obtained by referring to the test methods and judgment criteria in Appendix C of GB 15979-2002 Hygienic Standard for Disposable Sanitary Products.
“Bacteriostatic effect” refers to the inhibition of bacteria, fungi, or other microorganisms by bacteriostatic agents.
The percentage concentration of each ingredient therein was the weight percentage concentration % (w/w), and the pH value of each group was 3.8.
The percentage concentration of each ingredient therein was the weight percentage concentration % (w/w), and the pH value of each group was 4.0.
According to the method described in Appendix C of GB 15979-2002 Hygienic Standard for Disposable Sanitary Products, aqueous solutions containing different ingredients were studied for their bacteriostatic effects of 20 minutes of action against Candida albicans ATCC 10231, the percentage concentration of each ingredient therein was the weight percentage concentration % (w/w), and the pH value of each group was 3.9. […]
A further experiment concerns lactobacilli. Particulars: cited from earlier work.

`O=C([O-])c1ccccc1.[Na+]` [0.25% sodium benzoate, sodium benzoate] showed an Inhibition rate in experiment [1] (Table 12, single ingredient solutions, pH 3.8, 20 minutes of action) of 3.73%.
With `OCCc1ccccc1` [phenethyl alcohol, phenethyl alcohol (2-phenylethanol)], the growth of lactobacilli entry is “not significantly inhibited” with lactobacilli (concentration 0.40% (w/v)) and “inhibited” with lactobacilli (concentration 0.50% (w/v)).
For `CCC(=O)[O-].[Na+]` [sodium propionate], the growth of lactobacilli entry is listed as “not significantly inhibited” in the experiment on lactobacilli (concentration 0.40% (w/v)), “not significantly inhibited” in the experiment with lactobacilli (concentration 0.50% (w/v)) and “inhibited” in the experiment on lactobacilli (concentration 0.70% (w/v)).
Regarding `N[C@@H](CCC(=O)O)C(=O)O` [0.55% glutamic acid, glutamic acid], in experiment [1] (text on Table 26, pH 4.0, Group 1 compared to Group 2), the “influence on the bacteriostatic effect of the solution containing 0.14% malic acid, 1.46% adipic acid, 0.20% sodium benzoate, 1.67% propionic acid, and 0.40% phenethyl alcohol against Candida albicans” value was “did not affect the bacteriostatic effect”.
